# Laboratory results as given in US20170253601A1, “Substituted Pyrrolidine Compounds” (EPIZYME, INC., priority 2014, published 2017).
# Biological target: T1, SMYD2 (Homo sapiens, UniProt Q9NRG4)
# T1 construct: Full length SMYD2 (NP 064582.2) was cloned; His6 (N, cleaved yes); FLAG (N); made in house; host or cells: Sf9 insect cells
# Experiment: SMYD2 Biochemical Assay (3H-SAM, biotinylated peptide substrate, Flashplate)
# Conditions: IC50 values are an average of n = 1 to n = 50; read-out: SMYD2 Biochem IC50 (μM)*
# Procedure, shortened: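 Methyltransferase activity tracked as 3H transfer from 10 nM 3H-SAM to 60 nM biotinylated peptide, counted after streptavidin Flashplate capture and normalised to DMSO and 1000 uM SAH controls. Enzyme: 1.5 nM full-length Sf9-expressed SMYD2, 30 min compound pre-incubation at room temperature, in Bicine pH 7.6 buffer with 2% DMSO; reactions quenched with 600 uM unlabelled SAM; IC50 from 3- or 4-parameter fit.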
# T1 sequence (Q9NRG4 whole entry): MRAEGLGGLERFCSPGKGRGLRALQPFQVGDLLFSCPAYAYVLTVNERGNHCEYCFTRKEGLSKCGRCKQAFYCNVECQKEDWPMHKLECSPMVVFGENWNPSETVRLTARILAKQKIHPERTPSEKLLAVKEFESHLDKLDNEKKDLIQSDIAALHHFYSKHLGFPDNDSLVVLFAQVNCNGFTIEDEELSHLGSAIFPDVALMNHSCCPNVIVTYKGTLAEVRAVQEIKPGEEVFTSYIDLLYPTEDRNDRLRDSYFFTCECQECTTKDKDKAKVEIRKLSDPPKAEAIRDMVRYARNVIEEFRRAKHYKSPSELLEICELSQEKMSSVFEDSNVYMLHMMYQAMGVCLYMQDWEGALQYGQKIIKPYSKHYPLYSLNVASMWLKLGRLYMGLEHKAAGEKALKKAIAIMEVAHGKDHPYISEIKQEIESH
row,Structure (SMILES),IC50
1,"CC(C)N1C[C@H](C)[C@H](NC(=O)c2cc(C3(C)CCC3)on2)C1 (racemic) [compound 260, (±)-cis-N-[4-methyl-1-(propan-2-yl)pyrrolidin-3-yl]-5-(1-methyl-cyclobutyl)-1,2-oxazole-3-carboxamide]",> 50 µM
2,"C[C@@H]1CN(CC(F)(F)F)C[C@H]1NC(=O)c1cc(C2CC2)on1 (racemic) [compound 261, (±)-trans-5-cyclopropyl-N-[4-methyl-1-(2,2,2-trifluoroethyl)pyrrolidin-3-yl]-1,2-oxazole-3-carboxamide]",> 50 µM
3,"C[C@H]1CN(CC(F)(F)F)C[C@H]1NC(=O)c1cc(C2CC2)on1 (racemic) [compound 262, (±)-cis-5-cyclopropyl-N-[4-methyl-1-(2,2,2-trifluoroethyl)pyrrolidin-3-yl]-1,2-oxazole-3-carboxamide]",> 50 µM
4,"C[C@H]1CN(CC(=O)N2CCN(C)CC2)C[C@H]1NC(=O)c1cc(C2CC2)on1 (racemic) [compound 263, (±)-cis-5-cyclopropyl-N-[4-methyl-1-[2-(4-methylpiperazin-1-yl)-2-oxoethyl]pyrrolidin-3-yl]-1,2-oxazole-3-carboxamide]",> 50 µM
5,"C[C@H]1CN(CC(=O)N2CCCC2)C[C@H]1NC(=O)c1cc(C2CC2)on1 (racemic) [compound 264, (±)-cis-5-cyclopropyl-N-[4-methyl-1-[2-oxo-2-(pyrrolidin-1-yl)ethyl]pyrrolidin-3-yl]-1,2-oxazole-3-carboxamide]",> 50 µM
6,"C[C@H]1CN(Cc2cccc3[nH]ncc23)C[C@H]1NC(=O)c1cc(C2CC2)on1 (racemic) [compound 265, (±)-cis-5-cyclopropyl-N-[1-(1H-indazol-4-ylmethyl)-4-methylpyrrolidin-3-yl]-1,2-oxazole-3-carboxamide]",4.89 µM
7,"C[C@H]1CN(Cc2cccc3cccnc23)C[C@H]1NC(=O)c1cc(C2CC2)on1 (racemic) [compound 266, (±)-cis-5-cyclopropyl-N-[4-methyl-1-(quinolin-8-ylmethyl)pyrrolidin-3-yl]-1,2-oxazole-3-carboxamide]",12.3 µM
8,"C[C@H]1CN(CC(=O)N(C)C)C[C@H]1NC(=O)c1cc(C2CC2)on1 (racemic) [compound 267, (±)-cis-5-cyclopropyl-N-[1-[(dimethyl-carbamoyl)methyl]-4-methylpyrrolidin-3-yl]-1,2-oxazole-3-carboxamide]",> 50 µM
9,"Cc1cc(CN2C[C@H](C)[C@H](NC(=O)c3cc(C4CC4)on3)C2)oc1C (racemic) [compound 268, (±)-cis-5-cyclopropyl-N-{1-[(4,5-dimethyl-furan-2-yl)methyl]-4-methylpyrrolidin-3-yl]-1,2-oxazole-3-carboxamide]",5.3 µM
10,"C[C@H]1CN(Cc2cc3ccccc3nc2Cl)C[C@H]1NC(=O)c1cc(C2CC2)on1 (racemic) [compound 269, (±)-cis-N-[1-[(2-chloro-quinolin-3-yl)methyl]-4-methylpyrrolidin-3-yl]-5-cyclopropyl-1,2-oxazole-3-carboxamide]",4.17 µM
11,"C[C@H]1CN(CC(=O)N2CCOCC2)C[C@H]1NC(=O)c1cc(C2CC2)on1 (racemic) [compound 270, (±)-cis-5-cyclopropyl-N-[4-methyl-1-[2-(morpholin-4-yl)-2-oxoethyl]pyrrolidin-3-yl]-1,2-oxazole-3-carboxamide]",> 50 µM
12,"C[C@@H]1CN(CC(=O)N2CCOCC2)C[C@H]1NC(=O)c1cc(C2CC2)on1 (racemic) [compound 271, (±)-trans-5-cyclopropyl-N-[4-methyl-1-[2-(morpholin-4-yl)-2-oxoethyl]pyrrolidin-3-yl]-1,2-oxazole-3-carboxamide]",> 50 µM
13,"C[C@H]1CN(c2ccccc2)C[C@H]1NC(=O)c1cc(C2CC2)on1 (racemic) [compound 272, (±)-cis-5-cyclopropyl-N-[4-methyl-1-phenylpyrrolidin-3-yl]-1,2-oxazole-3-carboxamide]",> 50 µM
14,"C[C@H]1CN(c2ccc(Cl)cc2)C[C@H]1NC(=O)c1cc(C2CC2)on1 (racemic) [compound 273, (±)-cis[N-[1-(4-chloro-phenyl)-4-methyl-pyrrolidin-3-yl]-5-cyclopropyl-1,2-oxazole-3-carboxamide]",> 50 µM
15,"C[C@H]1CN(Cc2ccc3c(c2)OCCO3)C[C@H]1NC(=O)c1cc(C2CC2)on1 (racemic) [compound 274, (±)-cis-5-cyclopropyl-N-[1-(2,3-dihydro-1,4-benzodioxin-6-ylmethyl)-4-methylpyrrolidin-3-yl]-1,2-oxazole-3-carboxamide]",6.3 µM
16,"C[C@H]1CN(Cc2ccccc2Cl)C[C@H]1NC(=O)c1cc(C2CC2)on1 (racemic) [compound 275, (±)-cis-N-{1-[(2-chloro-phenyl)methyl]-4-methyl-pyrrolidin-3-yl}-5-cyclopropyl-1,2-oxazole-3-carboxamide]",3.02 µM
17,"C[C@H]1CN(CCO)C[C@H]1NC(=O)c1cc(C2CC2)on1 (racemic) [compound 276, (±)-cis-5-cyclopropyl-N-[1-(2-hydroxyethyl)-4-methylpyrrolidin-3-yl]-1,2-oxazole-3-carboxamide]",5.85 µM
18,"C[C@@H]1CN(CC(=O)N(C)C)C[C@H]1NC(=O)c1cc(C2CC2)on1 (racemic) [compound 277, (±)-trans-5-cyclopropyl-N-{1-[(dimethyl-carbamoyl)methyl]-4-methylpyrrolidin-3-yl}-1,2-oxazole-3-carboxamide]",> 50 µM
19,"CC(=O)Nc1ccc(N2C[C@H](C)[C@H](NC(=O)c3cc(C4CC4)on3)C2)cc1 (racemic) [compound 278, (±)-cis-5-cyclopropyl-N-[1-(4-acetamido-phenyl)-4-methylpyrrolidin-3-yl]-1,2-oxazole-3-carboxamide]",> 50 µM
20,"COc1ccccc1N1C[C@H](C)[C@H](NC(=O)c2cc(C3CC3)on2)C1 (racemic) [compound 279, (±)-cis-5-cyclopropyl-N-[1-(2-methoxyphenyl)-4-methylpyrrolidin-3-yl]-1,2-oxazole-3-carboxamide]",> 50 µM
21,"COc1cccc(N2C[C@H](C)[C@H](NC(=O)c3cc(C4CC4)on3)C2)c1 (racemic) [compound 280, (±)-cis-5-cyclopropyl-N-[1-(3-methoxyphenyl)-4-methylpyrrolidin-3-yl]-1,2-oxazole-3-carboxamide]",> 50 µM
22,"CC(C)N1C[C@@H](C)[C@H](NC(=O)c2cc(C(F)F)on2)C1 (racemic) [compound 281, (±)-trans-5-(difluoro-methyl)-N-[4-methyl-1-(propan-2-yl)pyrrolidin-3-yl]-1,2-oxazole-3-carboxamide]",> 50 µM
23,"C[C@H]1CN(Cc2cc([N+](=O)[O-])ccc2F)C[C@H]1NC(=O)c1cc(C2CC2)on1 (racemic) [compound 282, (±)-cis-5-cyclopropyl-N-{1-[(2-fluoro-5-nitrophenyl)methyl]-4-methylpyrrolidin-3-yl}-1,2-oxazole-3-carboxamide]",26.7 µM
24,"C[C@H]1CN(Cc2ccsc2)C[C@H]1NC(=O)c1cc(C2CC2)on1 (racemic) [compound 283, (±)-cis-5-cyclopropyl-N-[4-methyl-1-(thiophen-3-ylmethyl)pyrrolidin-3-yl]-1,2-oxazole-3-carboxamide]",1.85 µM
